According to PubChem BioAssay (NCI):
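96-well plates; 48 h exposure; 5 concentrations. Endpoints by linear interpolation between flanking doses. Not reached: highest tested concentration assigned. TGI is the concentration that stops growth completely.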 Where a SMILES comes first, the peptide text is derived from it. The star is where a group is joined. Fmoc = O=C(OCC1c2ccccc2-c2ccccc21)*; OtBu = CC(C)(C)O*

Legend:
Assay in all cases: NCI-60 cell line screen, 48 h
A549 NSCLC = tested on: A549 NSCLC
SNB-19 CNS = tested on: SNB-19 CNS
T-47D breast = tested on: T-47D breast
HS 578T breast = tested on: HS 578T breast
SK-OV-3 ovarian = tested on: SK-OV-3 ovarian
SF-268 CNS = tested on: SF-268 CNS
COLO 205 colon = tested on: COLO 205 colon
HOP-92 NSCLC = tested on: HOP-92 NSCLC
HCT-15 colon = tested on: HCT-15 colon
MOLT-4 leukemia = tested on: MOLT-4 leukemia
RPMI-8226 leukemia = tested on: RPMI-8226 leukemia
OVCAR-8 ovarian = tested on: OVCAR-8 ovarian

SMILES	TGI (A549 NSCLC)	TGI (SNB-19 CNS)	TGI (T-47D breast)	TGI (HS 578T breast)	TGI (SK-OV-3 ovarian)	TGI (SF-268 CNS)	TGI (COLO 205 colon)	TGI (HOP-92 NSCLC)	TGI (HCT-15 colon)	TGI (MOLT-4 leukemia)	TGI (RPMI-8226 leukemia)	TGI (OVCAR-8 ovarian)
COc1cc(OC)cc(OCc2nc3cc(C(F)(F)F)ccc3nc2-c2ccccc2)c1	> 100 µM	> 100 µM	> 100 µM	> 100 µM	> 100 µM	> 100 µM	> 100 µM	> 100 µM	> 100 µM	> 100 µM	> 100 µM	> 100 µM
CCOc1cc(C2CC(c3ccc(NS(=O)(=O)c4cc([N+](=O)[O-])ccc4C)cc3)=NN2S(=O)(=O)c2cc([N+](=O)[O-])ccc2C)ccc1O (configuration not stated)	> 100 µM	> 100 µM	65.1 µM	> 100 µM	> 100 µM	> 100 µM	> 100 µM	60.7 µM	> 100 µM	> 100 µM	> 100 µM	> 100 µM
CC(C)C(NC(=O)OCC1c2ccccc2-c2ccccc21)C(=O)NC(CCC(=O)OC(C)(C)C)C(=O)OC(C)(C)C (configuration not stated) (Fmoc-Val-Glu(OtBu)-OtBu; configuration not given here)	> 100 µM	> 100 µM	> 72.7 µM	> 100 µM	> 100 µM	> 100 µM	> 31.6 µM	> 100 µM	> 100 µM	> 100 µM	> 100 µM	> 100 µM
O=C(Nc1ccccc1)c1cc(S(=O)(=O)Nc2n[nH]c(=O)n2-c2ccccc2)c(S)cc1Cl	> 100 µM	> 100 µM	> 100 µM	> 100 µM	> 100 µM	> 100 µM	> 100 µM	> 100 µM	> 100 µM	> 100 µM	> 100 µM	> 100 µM
CC1=NN(c2nc(N)nc(CN3CCOCC3)n2)C(C)(C)C1	> 100 µM	> 100 µM	> 100 µM	> 100 µM	> 100 µM	> 100 µM	> 100 µM	> 100 µM	> 100 µM	> 100 µM	> 100 µM	> 100 µM
COc1ccc(C(=O)C#Cc2cn(C3CC(O)C(CO)O3)c(=O)[nH]c2=O)cc1 (configuration not stated)	> 100 µM	> 100 µM	35.4 µM	> 100 µM	> 100 µM	> 100 µM	> 100 µM	45.9 µM	> 100 µM	> 100 µM	> 100 µM	> 100 µM
NC1N=C(c2ccc(Cl)cc2)C2=C(N1)c1ccccc1CC2 (configuration not stated)	> 80.7 µM	> 100 µM	> 100 µM	> 100 µM	> 100 µM	> 100 µM	> 100 µM	> 100 µM	> 100 µM	> 31.4 µM	12.2 µM	> 100 µM
C=CCOC(=O)CC[C@H](NC(=O)[C@@H](CCC(F)(F)F)Cc1ccc(O)cc1)C(=O)OCC=C	> 100 µM	> 100 µM	51.5 µM	> 100 µM	> 100 µM	> 100 µM	40.7 µM	> 100 µM	> 100 µM	79.8 µM	74.6 µM	> 100 µM
CCN1CCC(O)(c2ccc(Oc3ccc(Cl)cc3)cc2)C(C(=O)c2ccc(Oc3ccc(Cl)cc3)cc2)C1 (configuration not stated)	20.3 µM	29.3 µM	36.6 µM	58.5 µM	38.9 µM	44.3 µM	27.4 µM	24.8 µM	19.9 µM	43.9 µM	10.9 µM	38.6 µM
O=C(O)c1ccccc1C(=O)NCC1S(=O)(=O)OCCOS1(=O)=O	> 100 µM	> 100 µM	> 100 µM	> 100 µM	> 100 µM	> 100 µM	> 100 µM	> 100 µM	> 100 µM	> 100 µM	> 100 µM	> 100 µM
CC1=C(C#N)C(=C(C#N)C#N)OC1(C)Cc1ccccc1 (configuration not stated)	> 100 µM	> 100 µM	85.6 µM	> 100 µM	> 100 µM	> 100 µM	43 µM	38.6 µM	83 µM	67.3 µM	96.8 µM	> 100 µM
